# Earlier results, collected in patent US20060247361A1, “Polar functionalized polymer modified porous substrate for solid phase extraction” (priority 2005, published 2006).
# Counter-ions that a name gives are not always drawn.
row,Compound,Log P
1,CNCCC=C1c2ccccc2CCc2ccccc21 [Nortriptyline],4.74
2,CC(C)(C)NCC(O)c1ccc(O)c(CO)c1 (stereo not shown) [Salbutamol],0.97
3,CC(C)(C)NC[C@H](O)COc1nsnc1N1CCOCC1 [Timolol maleate],1.83
4,CN1CCN2c3ccccc3Cc3ccccc3C2C1 (stereo not shown) [Mianserin],3.85

# More lines, now with the values ahead:
row,Log P,Compound
1,3.75,NCCC(Oc1ccc(C(F)(F)F)cc1)c1ccccc1 (stereo not shown) [Norfluoxetine]
2,3.89,CN(C)CCC(c1ccc(Br)cc1)c1ccccn1 (stereo not shown) [Brompheniramine]
3,3.38,CN(C)CCC(c1ccc(Cl)cc1)c1ccccn1 (stereo not shown) [Chlorpheniramine maleate]
